Experimental data from US11584714B2 (priority 2018, dated 2023).
Where two headings read alike, the source gives them in different places.

Experiments:
Type in all cases: biochemical
[1] = molecular target: MASP-2 (CCP1-CCP2-SP) (Homo sapiens (Human), UniProt O00187); test: biochemical; conditions: for MASP-2 vs. thrombin selectivity: selectivity for MASP-2 inhibition versus thrombin
[2] = molecular target: human α-thrombin (Homo sapiens (Human), UniProt P00734); test: Enzymatic assay for thrombin (Boc-VPR-AMC substrate)
[3] = molecular target: mMASP-2 (Mus musculus (Mouse), UniProt Q91WP0); test: Enzymatic inhibition of mMASP-2
mMASP-2, sequence (Q91WP0 20-685): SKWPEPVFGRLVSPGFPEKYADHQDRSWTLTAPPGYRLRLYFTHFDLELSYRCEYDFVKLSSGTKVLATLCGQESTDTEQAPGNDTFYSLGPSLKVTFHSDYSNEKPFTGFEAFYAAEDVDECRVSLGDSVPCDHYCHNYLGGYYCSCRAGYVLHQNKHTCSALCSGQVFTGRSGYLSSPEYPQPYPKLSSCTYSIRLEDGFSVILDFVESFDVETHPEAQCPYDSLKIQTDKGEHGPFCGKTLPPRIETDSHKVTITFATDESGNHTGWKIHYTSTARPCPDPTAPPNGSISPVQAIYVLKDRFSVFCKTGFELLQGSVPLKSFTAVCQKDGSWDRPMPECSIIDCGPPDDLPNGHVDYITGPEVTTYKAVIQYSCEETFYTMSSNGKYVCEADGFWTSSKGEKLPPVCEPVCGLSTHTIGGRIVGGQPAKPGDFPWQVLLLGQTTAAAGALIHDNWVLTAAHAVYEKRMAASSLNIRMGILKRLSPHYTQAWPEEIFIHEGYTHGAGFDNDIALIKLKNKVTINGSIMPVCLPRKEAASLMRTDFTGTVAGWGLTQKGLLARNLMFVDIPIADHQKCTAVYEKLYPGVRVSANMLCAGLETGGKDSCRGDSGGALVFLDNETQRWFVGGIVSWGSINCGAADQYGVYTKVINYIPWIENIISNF

MASP-2 (CCP1-CCP2-SP), sequence (O00187 445-686): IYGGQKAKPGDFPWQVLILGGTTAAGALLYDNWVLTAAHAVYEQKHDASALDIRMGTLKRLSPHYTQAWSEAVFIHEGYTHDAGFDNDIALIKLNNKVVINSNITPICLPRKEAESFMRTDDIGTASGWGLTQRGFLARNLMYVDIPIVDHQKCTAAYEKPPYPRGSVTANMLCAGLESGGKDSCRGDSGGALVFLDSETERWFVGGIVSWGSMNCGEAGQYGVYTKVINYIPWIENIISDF

What does the source list for `C[C@H](NC(=O)[C@H](N)CCc1ccccc1)C(=O)NCc1ccc(CN)nc1` [compound 1280, (R)-2-Amino-N—((S)-1-(((6-(aminomethyl)pyridin-3-yl)methyl)amino)-1-oxopropan-2-yl)-4-phenylbutanamide]?
Ki [1]: 2.5 to 10 µM; Ki ([2]; read-out: Thrombin Ki): > 25 µM; Ki ([3]; read-out: mMASP-2 Ki): 10 to 25 µM

`C[C@H](NC(=O)[C@H]1C[C@H](c2ccccc2)CN1)C(=O)NCC1CCc2nc(N)sc2C1` (stereo partly drawn) [compound 1281, (2R,4R)—N-((2S)-1-(((2-Amino-4,5,6,7-tetrahydrobenzo[d]thiazol-6-yl)methyl)amino)-1-oxopropan-2-yl)-4-phenylpyrrolidine-2-carboxamide] was tested. Which Ki [1] did it give?
The Ki was 2.5 to 10 µM.

And the Ki ([2]; read-out: Thrombin Ki)?
Its Ki is over 25 µM.

And the Ki ([3]; read-out: mMASP-2 Ki)?
The Ki was over 25 µM.

What does the source list for `Cc1nc(N)ccc1CNC(=O)[C@H](C)NC(=O)[C@@H]1C[C@@H](Cc2ccccc2)CN1` [compound 1282, (2S,4R)—N—((S)-1-(((6-Amino-2-methylpyridin-3-yl)methyl)amino)-1-oxopropan-2-yl)-4-benzylpyrrolidine-2-carboxamide]?
Ki [1]: 10 to 25 µM; Ki ([2]; read-out: Thrombin Ki): > 25 µM; Ki ([3]; read-out: mMASP-2 Ki): > 25 µM

For `Cc1nc(N)ccc1CNC(=O)[C@H](C)NC(=O)[C@H]1C[C@@H](Cc2ccccc2)CN1` [compound 1283, (2R,4R)—N—((S)-1-(((6-Amino-2-methylpyridin-3-yl)methyl)amino)-1-oxopropan-2-yl)-4-benzylpyrrolidine-2-carboxamide], which Ki ([1]; read-out: MASP-2 Ki) is on record?
The Ki was under 0.5 µM.

What about the “MASP-2 vs. thrombin selectivity” value [1] of the same compound?
Its value is “*** (≥25 to <100-fold)”.

And the Ki ([2]; Thrombin Ki (μM))?
The Ki was 2.5 to 10 µM.

And the Ki ([3]; read-out: mMASP-2 Ki)?
Its Ki is 0.5 to 2.5 µM.

With `C[C@H](NC(=O)[C@H]1C[C@@H](Cc2ccccc2)CN1)C(=O)NCc1ccc(C(=N)N)cc1` [compound 1284, (2R,4R)-4-Benzyl-N-((S)-1-((4-carbamimidoylbenzyl)amino)-1-oxopropan-2-yl)pyrrolidine-2-carboxamide] as the compound, how does the Ki ([1]; read-out: MASP-2 Ki) read?
The Ki was under 0.5 µM.

What about the “MASP-2 vs. thrombin selectivity” value [1] of the same compound?
The value was “* (≥1.0 to <5.0-fold)”.

And the Ki ([2]; read-out: Thrombin Ki)?
Its Ki is under 0.5 µM.

What about the Ki ([3]; read-out: mMASP-2 Ki) of the same compound?
Its Ki is under 0.5 µM.

Which results are given for `C[C@H](NC(=O)[C@@H]1C[C@@H](Cc2ccccc2)CN1)C(=O)NCc1ccc(C(=N)N)cc1` [compound 1285, (2S,4R)-4-Benzyl-N-((S)-1-((4-carbamimidoylbenzyl)amino)-1-oxopropan-2-yl)pyrrolidine-2-carboxamide]?
Ki [1]: 0.5 to 2.5 µM; MASP-2 vs. thrombin selectivity [1]: ** (≥5.0 to <25-fold); Ki ([2]; Thrombin Ki (μM)): 2.5 to 10 µM; Ki ([3]; read-out: mMASP-2 Ki): 0.5 to 2.5 µM

Which results are given for `C[C@H](NC(=O)c1nc(-c2ccccc2)cs1)C(=O)NCc1ccc(C(=N)N)cc1` [compound 1286, (S)—N-(1-((4-Carbamimidoylbenzyl)amino)-1-oxopropan-2-yl)-4-phenylthiazole-2-carboxamide]?
Ki [1]: 2.5 to 10 µM; MASP-2 vs. thrombin selectivity [1]: −− (<1.0-fold); Ki ([2]; Thrombin Ki (μM)): 0.5 to 2.5 µM; Ki ([3]; read-out: mMASP-2 Ki): < 0.5 µM

With `C[C@H](NC(=O)[C@H](N)CCc1ccccc1)C(=O)NCc1cc(Cl)ccc1CO` [compound 1287, (R)-2-amino-N—((S)-1-((5-Chloro-2-(hydroxymethyl)benzyl)amino)-1-oxopropan-2-yl)-4-phenylbutanamide] as the compound, how does the Ki [1] read?
The Ki was 10 to 25 µM.

What about the Ki ([2]; read-out: Thrombin Ki) of the same compound?
The Ki was over 25 µM.

And the Ki ([3]; read-out: mMASP-2 Ki)?
Its Ki is over 25 µM.

For `C[C@H](NC(=O)[C@H]1C[C@H](c2ccccc2)CN1)C(=O)NCc1ccc(C(=N)NC(=O)OCC(Cl)(Cl)Cl)cc1` [compound 1288, 2,2,2-Trichloroethyl (imino(4-(((S)-2-((2R,4R)-4-phenylpyrrolidine-2-carboxamido)propanamido)methyl)phenyl)methyl)carbamate], which Ki ([1]; MASP-2 Ki (μM)) is on record?
Its Ki is 2.5 to 10 µM.

And the Ki ([2]; read-out: Thrombin Ki)?
The Ki was over 25 µM.

What about the Ki [3] of the same compound?
The Ki was 2.5 to 10 µM.

`CC[C@H](NC(=O)[C@H](N)CCc1ccccc1)C(=O)NCc1ccc(C(=N)N)cc1` [compound 1289, (R)-2-Amino-N—((S)-1-((4-carbamimidoylbenzyl)amino)-1-oxobutan-2-yl)-4-phenylbutanamide] was tested. Which Ki ([1]; read-out: MASP-2 Ki) did it give?
Its Ki is under 0.5 µM.

What about the “MASP-2 vs. thrombin selectivity” value [1] of the same compound?
Its value is “−− (<1.0-fold)”.

What about the Ki ([2]; read-out: Thrombin Ki) of the same compound?
Its Ki is under 0.5 µM.

And the Ki ([3]; read-out: mMASP-2 Ki)?
The Ki was under 0.5 µM.
